Test results: patent US7378090B2, “Alleviation of the memory deficits and memory components of psychiatric dysfunctions by altering atypical PKM activity” (The Research Foundation of State University of New York, priority 2001, dated 2008)
Entries after “also recorded” stand apart in the source; their conditions may differ.

Experiments:
[1] = target: T1, PKMζ (Homo sapiens, UniProt Q05513); conditions: cited from earlier work
T1 sequence (Q05513 1-409 isoform Q05513-2): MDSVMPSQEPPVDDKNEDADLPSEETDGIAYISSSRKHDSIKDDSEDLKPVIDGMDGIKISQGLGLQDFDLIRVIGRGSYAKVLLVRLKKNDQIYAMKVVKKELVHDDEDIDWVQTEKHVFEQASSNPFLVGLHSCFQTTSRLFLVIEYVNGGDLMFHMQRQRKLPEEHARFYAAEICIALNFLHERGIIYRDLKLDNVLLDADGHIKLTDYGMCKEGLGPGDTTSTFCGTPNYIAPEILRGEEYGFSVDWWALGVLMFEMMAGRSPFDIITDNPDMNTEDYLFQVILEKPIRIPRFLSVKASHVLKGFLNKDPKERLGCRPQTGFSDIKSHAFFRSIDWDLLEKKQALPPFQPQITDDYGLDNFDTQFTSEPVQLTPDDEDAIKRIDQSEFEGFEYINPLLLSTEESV

[2] = test system: Drosophila; test: Olfactory-avoidance conditioning, learning (tested immediately after single-cycle training); assay type: in vivo; conditions: wild-type flies fed 100 μM chelerythrine for 3 h
From the text: In Drosophila, the best characterized assay for associative learning and memory is an odor-avoidance behavioral task (T. Tully, et al. J. Comp. Physiol. A157, 263-277 (1985) incorporated herein by reference). This classical (Pavlovian) conditioning involves exposing the flies to two odors (the conditioned stimuli, or CS), one at a time, in succession. During one of these odor exposures (the CS+), the flies are simultaneously subjected to electric shock (the unconditioned stimulus, or US), whereas exposure to the other odor (the CS−) lacks this negative reinforcement. […]
Pavlovian learning and memory in Drosophila. […] The performance index (PI) was calculated by subtracting the number of flies making the incorrect choice from those making the correct one, dividing by the total number of flies, and multiplying by 100. To avoid odor-avoidance biases, the PI of each single n was calculated by taking an average performance of two groups of flies, one group trained with the CS+ being OCT, the other with the CS+ being MCH.
(§1) A 4% (wt/vol) sucrose solution was used as a vehicle for the chelerythrine feeding. […] Feeding was monitored by placing 1/50 volume of green food coloring into the solutions, which could then be seen in the abdomens of flies after eating. […]

[3] = test system: Drosophila; test: Olfactory-avoidance classical (Pavlovian) conditioning, memory after training; assay type: in vivo; conditions: for 24-h memory after massed training: wild-type flies fed 25, 50 or 100 μM chelerythrine in sucrose for 3 h, three cycles of massed training
From the text: In Drosophila, the best characterized assay for associative learning and memory is an odor-avoidance behavioral task (T. Tully, et al. J. Comp. Physiol. A157, 263-277 (1985) incorporated herein by reference). This classical (Pavlovian) conditioning involves exposing the flies to two odors (the conditioned stimuli, or CS), one at a time, in succession. During one of these odor exposures (the CS+), the flies are simultaneously subjected to electric shock (the unconditioned stimulus, or US), whereas exposure to the other odor (the CS−) lacks this negative reinforcement. Following training, the flies are then placed at a ‘choice point’, where the odors come from opposite directions, and expected to decide which odor to avoid. By convention, learning is defined as the fly's performance when testing occurs immediately after training. A single training trial produces strong learning: a typical response is that >90% of the flies avoid the CS+. Performance of wild-type flies from this single-cycle training decays over a roughly 24-hour period until flies once again distribute evenly between the two odors. Flies can also form long-lasting associative olfactory memories, but normally this requires repetitive training regimens.
Pavlovian learning and memory in Drosophila. To assess learning and memory in Drosophila, an olfactory-avoidance classical (Pavlovian) conditioning protocol was used. […] The performance index (PI) was calculated by subtracting the number of flies making the incorrect choice from those making the correct one, dividing by the total number of flies, and multiplying by 100. To avoid odor-avoidance biases, the PI of each single n was calculated by taking an average performance of two groups of flies, one group trained with the CS+ being OCT, the other with the CS+ being MCH. […]
as §1

[4] = test system: CA1 pyramidal cells; conditions: sustained application of low concentrations; cited from earlier work
[5] = test system: Drosophila; conditions: cited from earlier work

Molecule: COc1ccc2c(c[n+](C)c3c4cc5c(cc4ccc23)OCO5)c1OC [chelerythrine]
- inhibition of other PKC isotypes ([1]; higher concentrations): inhibits other PKC isotypes at higher concentrations
- inhibition of PKMζ ([1]; low concentrations): selectively inhibit PKMζ at low concentrations
- learning [2]: not different; also recorded: unaffected
- 24-h memory after massed training [3]: inhibited 24-hour memory formation in a dose-dependent manner
- 24-h memory after massed training ([3]; listed as Chelerythrine): inhibits 24-h memory after massed training in a dose-dependent manner
- LTP maintenance [4]: abolished

Molecule: C[C@@H]1C[C@@H]([C@H](O)CC2CC(=O)NC(=O)C2)C(=O)[C@@H](C)C1 [cycloheximide]
- anesthesia-resistant memory (ARM) ([5]; massed or spaced training): insensitive
- memory after spaced training of radish mutants ([5]; radish mutants): completely blocked
- long-term memory (LTM) ([5]; spaced training): blocked

B1: FL-MaPKCζ: full-length (FL) mouse atypical PKCζ expressed from heat-shock transgene (protein, UniProt Q02956 1-592, looked up)
chain: MPSRTDPKMDRSGGRVRLKAHYGGDILITSVDAMTTFKDLCEEVRDMCGLHQQHPLTLKWVDSEGDPCTVSSQMELEEAFRLVCQGRDEVLIIHVFPSIPEQPGMPCPGEDKSIYRRGARRWRKLYRANGHLFQAKRFNRGAYCGQCSERIWGLSRQGYRCINCKLLVHKRCHVLVPLTCRRHMDSVMPSQEPPVDDKNDGVDLPSEETDGIAYISSSRKHDNIKDDSEDLKPVIDGVDGIKISQGLGLQDFDLIRVIGRGSYAKVLLVRLKKNDQIYAMKVVKKELVHDDEDIDWVQTEKHVFEQASSNPFLVGLHSCFQTTSRLFLVIEYVNGGDLMFHMQRQRKLPEEHARFYAAEICIALNFLHERGIIYRDLKLDNVLLDADGHIKLTDYGMCKEGLGPGDTTSTFCGTPNYIAPEILRGEEYGFSVDWWALGVLMFEMMAGRSPFDIITDNPDMNTEDYLFQVILEKPIRIPRFLSVKASHVLKGFLNKDPKERLGCRPQTGFSDIKSHAFFRSIDWDLLEKKQTLPPFQPQITDDYGLDNFDTQFTSEPVQLTPDDEDVIKRIDQSEFEGFEYINPLLLSAEESV
modifications: full-length
notes: full-length (FL) mouse atypical PKCζ expressed from heat-shock transgene
- 24-hour memory after single-cycle training ([3]; transgene induced by 30-min 32° C. heat shock after training): not observed
